{
  "source": "patent US12239643B2",
  "about": "“Therapeutic agent for inflammatory diseases, autoimmune diseases, fibrotic diseases, and cancer diseases” (MEIJI SEIKA PHARMA CO., LTD., priority 2018, dated 2025)",
  "data": [
    {"test_system": "PDE4", "test": "Evaluation of PDE4 inhibitory activity, scintillation proximity assay", "type": "biochemical", "details": "scintillation proximity assay; class symbols of Evaluation 1; read-out: PDE4 Inhibitory Activity (concentration for the inhibition rate of 50%, IC50), Evaluation 1", "description": "(§1) The BDE4 inhibitory activity was measured using scintillation proximity assay (SPA) as follows. First, a test compound dissolved in dimethyl sulfoxide was diluted 1:10 in reaction buffer solution which contained 50 mM of Tris-HCl with pH 7.4, 8.3 mM of MgCl2, 1.7 mM of EGTA, and 3 mg/mL of bovine serum albumin (BSA). Then, 10 μL of the diluted solution was added in a 96-well assay plate. Moreover, 50 μL of PDE4 (enzyme preparation) diluted 1:375 in the reaction buffer solution was added, and then 40 μL of [2,8-^3H]-adenosine-3′,5′-cyclic phosphate triethylammonium salt diluted 1:1000 in the reaction buffer solution was added. The mixture was allowed to stand at room temperature for 120 minutes. Thereafter, […] of RNA binding YSi-SPA beads suspension containing ZnSO4 was added and the mixture was allowed to stand at room temperature for 15 minutes, followed by adsorption of the enzyme reaction product to the beads. After that, the radioactivity was measured using a liquid scintillation counter for a 96-well plate. The mixture without the enzyme preparation added but only the reaction buffer solution added is a blank, and the mixture with the enzyme preparation added and only dimethyl sulfoxide added instead of the test compound is a control.\n(§2) In addition, the PDE4 inhibitory activity (concentration that inhibits PDE4 activity by 50%=concentration for the inhibition rate of 50% (IC50)) of the test compound was calculated from the inhibition curves based on the inhibition rates for various concentrations of the test compound.", "units": {"IC50": "nM"}, "values": [
      {"smiles": "FC(F)(F)c1ccc(-c2nccs2)c2oc(N3CC4CCC(C3)N4)nc12", "note": "[Example 31, 2-(3,8-Diazabicyclo[3.2.1]octan-3-yl)-7-(thiazol-2-yl)-4-(trifluoromethyl)benzo[d]oxazole]", "IC50": "< 100"},
      {"smiles": "CN(C)C(=O)c1ccc(-c2nccs2)c2oc(N3CC4CCC(C3)N4)nc12", "note": "[Example 115, 2-(3,8-Diazabicyclo[3.2.1]octan-3-yl)-N,N-dimethyl-7-(thiazol-2-yl)benzo[d]oxazole-4-carboxamide]", "IC50": "< 100"},
      {"smiles": "COCCOC(c1cc(-c2nccs2)c2oc(N3CC4CC(C3)N4)nc2c1)C(F)(F)F", "note": "(stereo not shown) [Example 154, 2-(3,6-Diazabicyclo[3.1.1]heptan-3-yl)-7-(thiazol-2-yl)-5-(2,2,2-trifluoro-1-(2-methoxyethoxy)ethyl)benzo[d]oxazole]", "IC50": "< 100"},
      {"smiles": "CC(=O)N(C)c1cc(-c2nccs2)c2oc(N3CC4CCC(C3)N4)nc2c1", "note": "[Example 101, N-(2-(3,8-diazabicyclo[3.2.1]octan-3-yl)-7-(thiazol-2-yl)benzo[d]oxazol-5-yl)-N-methylacetamide]", "IC50": "< 100"},
      {"smiles": "O=C(c1cc(-c2nccs2)c2oc(N3CC4CCC(C3)N4)nc2c1)N1CCC1", "note": "[Example 97, (2-(3,8-Diazabicyclo[3.2.1]octan-3-yl)-7-(thiazol-2-yl)benzo[d]oxazol-5-yl)(azetidin-1-yl)methanone]", "IC50": "< 100"},
      {"smiles": "O=C(O)COc1cc(-c2nccs2)c2oc(N3CC4CCC(C3)N4)nc2c1", "note": "[Example 74, 2-((2-(3,8-Diazabicyclo[3.2.1]octan-3-yl)-7-(thiazol-2-yl)benzo[d]oxazol-5-yl)oxy)acetic acid]", "IC50": "< 100"},
      {"smiles": "O=C(NCc1ccccc1)c1cc(-c2nccs2)c2oc(N3CC4CCC(C3)N4)nc2c1", "note": "[Example 98, N-benzyl-2-(3,8-diazabicyclo[3.2.1]octan-3-yl)-7-(thiazol-2-yl)benzo[d]oxazole-5-carboxamide]", "IC50": "< 100"},
      {"smiles": "COC(C)c1cc(-c2nccs2)c2oc(N3CC4CC(C3)N4)nc2c1", "note": "(stereo not shown) [Example 111, 2-(3,6-Diazabicyclo[3.1.1]heptan-3-yl)-5-(1-methoxyethyl)-7-(thiazol-2-yl)benzo[d]oxazole]", "IC50": "< 100"},
      {"smiles": "CC(O)(c1cc(-c2nccs2)c2oc(N3CC4CC(C3)N4)nc2c1)C(F)(F)F", "note": "(stereo not shown) [Example 160, 2-(2-(3,6-Diazabicyclo[3.1.1]heptan-3-yl)-7-(thiazol-2-yl)benzo[d]oxazol-5-yl)-1,1,1-trifluoropropan-2-ol]", "IC50": "< 100"},
      {"smiles": "N#CCOc1cc(-c2nccs2)c2oc(N3CC4CCC(C3)N4)nc2c1", "note": "[Example 73, 2-((2-(3,8-Diazabicyclo[3.2.1]octan-3-yl)-7-(thiazol-2-yl)benzo[d]oxazol-5-yl)oxy)acetonitrile]", "IC50": "< 100"},
      {"smiles": "Oc1cc(-c2nccs2)c2oc(N3CC4CCC(C3)N4)nc2c1", "note": "[Example 63, 2-(3,8-Diazabicyclo[3.2.1]octan-3-yl)-7-(thiazol-2-yl)benzo[d]oxazol-5-ol]", "IC50": "< 100"},
      {"smiles": "Oc1ccc(-c2nccs2)c2oc(N3CC4CCCC(C3)N4)nc12", "note": "[Example 80, 2-(3,9-Diazabicyclo[3.3.1]nonan-3-yl)-7-(thiazol-2-yl)benzo[d]oxazol-4-ol]", "IC50": "< 100"},
      {"smiles": "C[S+]([O-])c1cc(-c2nccs2)c2oc(N3CC4CCC(C3)N4)nc2c1", "note": "(stereo not shown) [Example 42, 2-(3,8-Diazabicyclo[3.2.1]octan-3-yl)-5-(methylsulfinyl)-7-(thiazol-2-yl)benzo[d]oxazole]", "IC50": "< 100"},
      {"smiles": "CCOC(=O)c1cc(-c2nccs2)c2oc(N3CC4CC(C3)N4)nc2c1C(F)(F)F", "note": "[Example 165, Ethyl 2-(3,6-diazabicyclo[3.1.1]heptan-3-yl)-7-(thiazol-2-yl)-4-(trifluoromethyl)benzo[d]oxazole-5-carboxylate]", "IC50": "< 100"},
      {"smiles": "FC(F)(F)Oc1c(Cl)cc(-c2ccco2)c2oc(N3CC4CCC(C3)N4)nc12", "note": "[Example 6, 2-(3,8-Diazabicyclo[3.2.1]octan-3-yl)-5-chloro-7-(furan-2-yl)-4-(trifluoromethoxy)benzo[d]oxazole]", "IC50": "< 100"},
      {"smiles": "O=C(c1ccc(-c2nccs2)c2oc(N3CC4CCC(C3)N4)nc12)N1CCOCC1", "note": "[Example 116, (2-(3,8-Diazabicyclo[3.2.1]octan-3-yl)-7-(thiazol-2-yl)benzo[d]oxazol-4-yl) (morpholino)methanone]", "IC50": "< 100"},
      {"smiles": "FC(F)(F)c1cc(-c2nccs2)c2oc(N3CC4CC(C3)N4)nc2c1", "note": "[Example 52, 2-(3,6-Diazabicyclo[3.1.1]heptan-3-yl)-7-(thiazol-2-yl)-5-(trifluoromethyl)benzo[d]oxazole]", "IC50": "< 100"},
      {"smiles": "CC(=O)Nc1cc(-c2nccs2)c2oc(N3CC4CC(C3)N4)nc2c1", "note": "[Example 49, N-(2-(3,6-diazabicyclo[3.1.1]heptan-3-yl)-7-(thiazol-2-yl)benzo[d]oxazol-5-yl)acetamide]", "IC50": "100 to 1000"},
      {"smiles": "COC(c1ccc(-c2nccs2)c2oc(N3CC4CC(C3)N4)nc12)C(F)F", "note": "(stereo not shown) [Example 130, 2-(3,6-Diazabicyclo[3.1.1]heptan-3-yl)-4-(2,2-difluoro-1-methoxyethyl)-7-(thiazol-2-yl)benzo[d]oxazole]", "IC50": "< 100"},
      {"smiles": "OC(c1cc(-n2cccn2)c2oc(N3CC4CCC(C3)N4)nc2c1)C(F)(F)F", "note": "(stereo not shown) [Example 140, 1-(2-(3,8-Diazabicyclo[3.2.1]octan-3-yl)-7-(1H-pyrazol-1-yl)benzo[d]oxazol-5-yl)-2,2,2-trifluoroethan-1-ol]", "IC50": "< 100"}
    ]},
    {"test_system": "PDE4", "test": "Evaluation of PDE4 inhibitory activity, scintillation proximity assay", "type": "biochemical", "details": "scintillation proximity assay; read-out: PDE4 Inhibitory Activity (Evaluation 1; concentration for the inhibition rate of 50%)", "description": "as §1, §2", "units": {"IC50": "nM"}, "values": [
      {"smiles": "O=S1(=O)CCN(c2ccc(-c3nccs3)c3oc(N4CC5CC(C4)N5)nc23)CC1", "note": "[Example 398, 4-(2-(3,6-Diazabicyclo[3.1.1]heptan-3-yl)-7-(thiazol-2-yl)benzo[d]oxazol-4-yl)thiomorpholine 1,1-dioxide]", "IC50": "< 100"},
      {"smiles": "CC(O)(c1ccc(-c2nccs2)c2oc(N3CC4CC(C3)N4)nc12)C(F)F", "note": "(stereo not shown) [Example 297, 2-(2-(3,6-Diazabicyclo[3.1.1]heptan-3-yl)-7-(thiazol-2-yl)benzo[d]oxazol-4-yl)-1,1-difluoropropan-2-ol]", "IC50": "< 100"},
      {"smiles": "N#CC1CC(Oc2ccc(-c3nccs3)c3oc(N4CC5CC(C4)N5)nc23)C1", "note": "(stereo not shown) [Example 266, 3-((2-(3,6-Diazabicyclo[3.1.1]heptan-3-yl)-7-(thiazol-2-yl)benzo[d]oxazol-4-yl)oxy)cyclobutane-1-carbonitrile]", "IC50": "< 100"},
      {"smiles": "CC(O)c1ccc(-c2nccs2)c2oc(N3CC4CC(C3)N4)nc12", "note": "(stereo not shown) [Example 240, 1-(2-(3,6-Diazabicyclo[3.1.1]heptan-3-yl)-7-(thiazol-2-yl)benzo[d]oxazol-4-yl)ethan-1-ol]", "IC50": "< 100"},
      {"smiles": "c1csc(-c2ccc(C3CCC3)c3nc(N4CC5CC(C4)N5)oc23)n1", "note": "[Example 414, 2-(3,6-Diazabicyclo[3.1.1]heptan-3-yl)-4-cyclobutyl-7-(thiazol-2-yl)benzo[d]oxazole]", "IC50": "< 100"},
      {"smiles": "COC(C)c1cc(-c2nccs2)c2oc(N3CC4CC(C3)N4)nc2c1OC(F)(F)F", "note": "(stereo not shown) [Example 211, 2-(3,6-Diazabicyclo[3.1.1]heptan-3-yl)-5-(1-methoxyethyl)-7-(thiazol-2-yl)-4-(trifluoromethoxy)benzo[d]oxazole]", "IC50": "< 100"},
      {"smiles": "O=C(O)c1cc(-c2nccs2)c2oc(N3CC4CC(C3)N4)nc2c1OC(F)(F)F", "note": "[Example 190, 2-(3,6-Diazabicyclo[3.1.1]heptan-3-yl)-7-(thiazol-2-yl)-4-(trifluoromethoxy)benzo[d]oxazole-5-carboxylic acid]", "IC50": "> 1000"},
      {"smiles": "CC(O)c1ccc(-c2nccs2)c2oc(N3CC4CCCC(C3)N4)nc12", "note": "(stereo not shown) [Example 239, 1-(2-(3,9-Diazabicyclo[3.3.1]nonan-3-yl)-7-(thiazol-2-yl)benzo[d]oxazol-4-yl)ethan-1-ol]", "IC50": "< 100"},
      {"smiles": "N#CCOC(c1ccc(-c2nccs2)c2oc(N3CC4CC(C3)N4)nc12)C(F)(F)F", "note": "(stereo not shown) [Example 226, 2-(1-(2-(3,6-Diazabicyclo[3.1.1]heptan-3-yl)-7-(thiazol-2-yl)benzo[d]oxazol-4-yl)-2,2,2-trifluoroethoxy)acetonitrile]", "IC50": "< 100"},
      {"smiles": "OC(c1cc(-c2nccs2)c2oc(N3CC4CCC(C3)N4)nc2c1OC(F)(F)F)C(F)F", "note": "(stereo not shown) [Example 276, 1-(2-(3,8-Diazabicyclo[3.2.1]octan-3-yl)-7-(thiazol-2-yl)-4-(trifluoromethoxy)benzo[d]oxazol-5-yl)-2,2-difluoroethan-1-ol]", "IC50": "< 100"},
      {"smiles": "NC(=O)COC(c1ccc(-c2nccs2)c2oc(N3CC4CC(C3)N4)nc12)C(F)(F)F", "note": "(stereo not shown) [Example 256, 2-(1-(2-(3,6-Diazabicyclo[3.1.1]heptan-3-yl)-7-(thiazol-2-yl)benzo[d]oxazol-4-yl)-2,2,2-trifluoroethoxy)acetamide]", "IC50": "< 100"},
      {"smiles": "CC(O)c1cc(-c2nccs2)c2oc(N3CC4CC(C3)N4)nc2c1C(F)(F)F", "note": "(stereo not shown) [Example 182, 1-(2-(3,6-Diazabicyclo[3.1.1]heptan-3-yl)-7-(thiazol-2-yl)-4-(trifluoromethyl)benzo[d]oxazol-5-yl)ethan-1-ol]", "IC50": "< 100"},
      {"smiles": "OC(c1cc(-c2nccs2)c2oc(N3CC4CCC(C3)N4)nc2c1C(F)(F)F)C(F)F", "note": "(stereo not shown) [Example 183, 1-(2-(3,8-Diazabicyclo[3.2.1]octan-3-yl)-7-(thiazol-2-yl)-4-(trifluoromethyl)benzo[d]oxazol-5-yl)-2,2-difluoroethan-1-ol]", "IC50": "< 100"},
      {"smiles": "O=C(NO)c1ccc(-c2nccs2)c2oc(N3CC4CC(C3)N4)nc12", "note": "[Example 367, 2-(3,6-Diazabicyclo[3.1.1]heptan-3-yl)-N-hydroxy-7-(thiazol-2-yl)benzo[d]oxazole-4-carboxamide]", "IC50": "< 100"}
    ]}
  ]
}
